Data: PubChem BioAssay (NCI)
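These data come from cells grown in 96-well plates and exposed to compound for 48 hours at five concentrations. TGI: total growth inhibition.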

Assays:
Test in all cases: NCI anticancer screen, dose series, 48 h
[1] = tested on: SK-MEL-5 melanoma
[2] = tested on: NCI-H23 lung
[3] = tested on: SK-OV-3 ovarian
[4] = tested on: A549 NSCLC
[5] = tested on: OVCAR-3 ovarian
[6] = tested on: SNB-75 CNS
[7] = tested on: HCT-116 colon
[8] = tested on: NCI-H460 lung
[9] = tested on: RXF 393 renal
[10] = tested on: NCI-H522 lung
[11] = tested on: RXF-631 renal
[12] = tested on: UO-31 renal
[13] = tested on: CCRF-CEM leukemia
[14] = tested on: MOLT-4 leukemia
[15] = tested on: HT29 colon
[16] = tested on: SW-620 colon
[17] = tested on: XF 498 CNS
[18] = tested on: HOP-18 NSCLC
[19] = tested on: ACHN renal
[20] = tested on: IGROV1 ovarian
[21] = tested on: SF-539 CNS
[22] = tested on: SK-MEL-28 melanoma
[23] = tested on: SNB-78 CNS
[24] = tested on: SR leukemia
[25] = tested on: KM20L2 colon
[26] = tested on: UACC-62 melanoma
[27] = tested on: LOX IMVI melanoma
[28] = tested on: SF-295 CNS
[29] = tested on: K-562 leukemia
[30] = tested on: OVCAR-8 ovarian
[31] = tested on: LXFL 529 NSCLC
[32] = tested on: SF-268 CNS
[33] = tested on: 786-0 renal
[34] = tested on: SK-MEL-2 melanoma
[35] = tested on: COLO 205 colon
[36] = tested on: DLD-1 colon
[37] = tested on: SNB-19 CNS
[38] = tested on: RPMI-8226 leukemia
[39] = tested on: TK-10 renal
[40] = tested on: UACC-257 melanoma
[41] = tested on: EKVX NSCLC
[42] = tested on: OVCAR-4 ovarian
[43] = tested on: NCI-H226 lung
[44] = tested on: HL-60(TB) leukemia
[45] = tested on: KM12 colon
[46] = tested on: M14 melanoma
[47] = tested on: HOP-92 NSCLC
[48] = tested on: OVCAR-5 ovarian
[49] = tested on: CAKI-1 renal
[50] = tested on: SN12C renal
[51] = tested on: M19-MEL melanoma
[52] = tested on: DMS 114 small cell lung
[53] = tested on: MALME-3M melanoma
[54] = tested on: U251 CNS
[55] = tested on: HOP-62 NSCLC
[56] = tested on: HCT-15 colon
[57] = tested on: A498 renal
[58] = tested on: DMS 273 small cell lung
[59] = tested on: HCC-2998 colon

C[C@H](C(=O)C12CC3CC(CC(C3)C1)C2)[C@H](O)c1ccccc1
TGI [1]: 32 µM | TGI [2]: > 100 µM | TGI [3]: > 100 µM | TGI [4]: > 100 µM | TGI [5]: 63.3 µM | TGI [6]: 75.9 µM | TGI [7]: 32.3 µM | TGI [8]: > 100 µM | TGI [9]: 48.3 µM | TGI [10]: 57.8 µM | TGI [11]: > 100 µM | TGI [12]: 73.5 µM | TGI [13]: > 100 µM | TGI [14]: > 100 µM | TGI [15]: 34.1 µM | TGI [16]: > 100 µM | TGI [17]: 67.7 µM | TGI [18]: > 100 µM | TGI [19]: > 100 µM | TGI [20]: > 100 µM | TGI [21]: 96.5 µM | TGI [22]: 31.4 µM | TGI [23]: > 100 µM | TGI [24]: 78.4 µM | TGI [25]: 43.9 µM | TGI [26]: > 100 µM | TGI [27]: 32 µM | TGI [28]: > 100 µM | TGI [29]: > 100 µM | TGI [30]: > 100 µM | TGI [31]: > 100 µM | TGI [32]: 30.2 µM | TGI [33]: 55.7 µM | TGI [34]: 38.8 µM | TGI [35]: 28.3 µM | TGI [36]: > 100 µM | TGI [37]: > 100 µM | TGI [38]: > 100 µM | TGI [39]: > 100 µM | TGI [40]: 78.4 µM | TGI [41]: > 100 µM | TGI [42]: > 100 µM | TGI [43]: 36.5 µM | TGI [44]: 58.1 µM | TGI [45]: 70.7 µM | TGI [46]: > 100 µM | TGI [47]: 45.8 µM | TGI [48]: 56.2 µM | TGI [49]: 91.2 µM | TGI [50]: 36.1 µM

O=C(CCc1nnc2s/c(=C\c3ccccc3[N+](=O)[O-])c(=O)n12)Nc1cc(Cl)c(Cl)cc1Cl
TGI [1]: > 100 µM | TGI [2]: > 100 µM | TGI [3]: > 100 µM | TGI [4]: > 100 µM | TGI [5]: 35.8 µM | TGI [6]: 55.8 µM | TGI [51]: > 100 µM | TGI [7]: 31.4 µM | TGI [8]: 75.7 µM | TGI [9]: 57.6 µM | TGI [52]: > 100 µM | TGI [53]: > 100 µM | TGI [10]: > 100 µM | TGI [11]: > 100 µM | TGI [12]: 91.4 µM | TGI [13]: 82.6 µM | TGI [14]: 71.6 µM | TGI [15]: > 100 µM | TGI [17]: 58 µM | TGI [18]: 94.4 µM | TGI [54]: 30.8 µM | TGI [19]: > 100 µM | TGI [20]: > 100 µM | TGI [55]: 64.1 µM | TGI [21]: 46 µM | TGI [22]: > 100 µM | TGI [23]: > 100 µM | TGI [25]: > 100 µM | TGI [26]: > 100 µM | TGI [27]: 46.9 µM | TGI [28]: 49.5 µM | TGI [29]: 72 µM | TGI [30]: 89.9 µM | TGI [31]: 53.8 µM | TGI [56]: > 100 µM | TGI [32]: 78.1 µM | TGI [57]: 53.6 µM | TGI [33]: 31.3 µM | TGI [34]: > 100 µM | TGI [35]: > 100 µM | TGI [58]: > 100 µM | TGI [36]: 66.6 µM | TGI [37]: 74.3 µM | TGI [39]: 87.9 µM | TGI [40]: > 100 µM | TGI [41]: > 100 µM | TGI [42]: 34.6 µM | TGI [43]: 40.6 µM | TGI [45]: 43.4 µM | TGI [46]: > 100 µM | TGI [47]: 51.2 µM | TGI [48]: > 100 µM | TGI [50]: 63.8 µM | TGI [59]: > 100 µM

O=C(CC1(O)C(=O)Nc2c(Cl)cc(Cl)cc21)c1ccc(Br)cc1 (configuration not stated)
TGI [1]: 31.3 µM | TGI [2]: 29.3 µM | TGI [3]: 64 µM | TGI [4]: 44.2 µM | TGI [5]: 29.8 µM | TGI [6]: 39.5 µM | TGI [51]: > 20 µM | TGI [7]: 34.7 µM | TGI [8]: > 56.3 µM | TGI [9]: 31.1 µM | TGI [52]: > 53.8 µM | TGI [53]: > 56.1 µM | TGI [10]: 32.4 µM | TGI [11]: 25.4 µM | TGI [12]: 17.4 µM | TGI [13]: > 55 µM | TGI [14]: > 63.5 µM | TGI [15]: > 57.9 µM | TGI [16]: > 53 µM | TGI [18]: 30.4 µM | TGI [54]: 26.9 µM | TGI [19]: 28.8 µM | TGI [20]: 35.3 µM | TGI [55]: 35.7 µM | TGI [21]: 31.2 µM | TGI [22]: 35.1 µM | TGI [23]: 47 µM | TGI [24]: 62.1 µM | TGI [25]: 32.9 µM | TGI [26]: 23.2 µM | TGI [27]: > 50.2 µM | TGI [28]: > 55.4 µM | TGI [29]: > 72.8 µM | TGI [30]: > 52.2 µM | TGI [31]: > 52.4 µM | TGI [56]: > 56.3 µM | TGI [32]: 34.4 µM | TGI [57]: > 66 µM | TGI [33]: 26.4 µM | TGI [34]: > 57.8 µM | TGI [35]: > 56.1 µM | TGI [58]: 28.8 µM | TGI [36]: 18.9 µM | TGI [37]: 35.5 µM | TGI [38]: 50.6 µM | TGI [39]: 32.1 µM | TGI [40]: > 51.3 µM | TGI [41]: 29.1 µM | TGI [42]: 25.6 µM | TGI [43]: 29.5 µM | TGI [44]: 18.6 µM | TGI [45]: 30.6 µM | TGI [46]: 31.8 µM | TGI [47]: 29.7 µM | TGI [48]: 31.4 µM | TGI [49]: 33 µM | TGI [50]: > 50.4 µM | TGI [59]: > 56.1 µM
